Test results published in article PMC4322967, “Afatinib circumvents multidrug resistance via dually inhibiting ATP binding cassette subfamily G member 2 in vitro and in vivo” (Oncotarget, 2014).

Legend:
Type in all cases: cell-based
ABCG2 [1] = target: T1, ABCG2 (Homo sapiens, UniProt Q9UNQ0); design: ABCG2-stably transfected HEK293 cells
T1 sequence (Q9UNQ0 1-655): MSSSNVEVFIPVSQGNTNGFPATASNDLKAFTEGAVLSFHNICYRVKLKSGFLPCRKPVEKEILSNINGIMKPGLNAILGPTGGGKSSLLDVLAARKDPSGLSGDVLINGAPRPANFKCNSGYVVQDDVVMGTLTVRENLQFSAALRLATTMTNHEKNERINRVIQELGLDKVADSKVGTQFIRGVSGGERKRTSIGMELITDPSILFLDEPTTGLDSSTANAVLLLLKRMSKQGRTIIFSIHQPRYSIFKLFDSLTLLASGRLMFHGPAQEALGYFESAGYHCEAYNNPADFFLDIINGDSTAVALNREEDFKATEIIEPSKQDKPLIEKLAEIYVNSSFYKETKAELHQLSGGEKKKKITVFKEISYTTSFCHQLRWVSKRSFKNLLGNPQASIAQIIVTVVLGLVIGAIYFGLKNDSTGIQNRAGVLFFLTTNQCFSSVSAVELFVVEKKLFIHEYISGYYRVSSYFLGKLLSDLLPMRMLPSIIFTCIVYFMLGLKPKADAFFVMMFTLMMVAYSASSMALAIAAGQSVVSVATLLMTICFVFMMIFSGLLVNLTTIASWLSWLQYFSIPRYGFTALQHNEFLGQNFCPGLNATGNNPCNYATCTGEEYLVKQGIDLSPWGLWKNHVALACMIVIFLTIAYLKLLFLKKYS

ABCG2 [2] = target: T1, ABCG2; test: vanadate-sensitive ATPase assay in crude membranes; also 5D3 shift and PhA efflux inhibition in HEK293/ABCG2 cells; design: crude membranes from ABCG2-expressing High Five insect cells
ABCG2 [3] = target: T1, ABCG2; test: 5D3 conformational antibody shift at […], flow cytometry; design: ABCG2-stably transfected HEK293 cells
ABCG2 [4] = target: T1, ABCG2; test: as above; design: ABCG2-stably transfected HEK293 cells; remark: listed apart in the source
ABCG2 [5] = target: T1, ABCG2; test: flow cytometry efflux of […] PhA in HEK293/ABCG2 versus pcDNA3 cells; design: HEK293 cells stably transfected with ABCG2

For `C#Cc1cccc(Nc2ncnc3cc(OCCOC)c(OCCOC)cc23)c1` [erlotinib], the “5D3 conformational antibody shift at 10 μM, flow cytometry” value (ABCG2 [1]) was “Other known ABCG2 inhibitors (including FTC, tariquidar and erlotinib) tested were also shown to notably increase 5D3 labeling”.
In the case of `CN(C)C/C=C/C(=O)Nc1cc2c(Nc3ccc(F)c(Cl)c3)ncnc2cc1O[C@H]1CCOC1` [Afatinib], the “vanadate-sensitive ATPase assay in crude membranes; also 5D3 shift and PhA efflu” value (ABCG2 [2]) is reported as “afatinib was found to inhibit the ATPase activity of ABCG2 in a dose dependent manner”.
In the case of `COc1cc2c(cc1OC)CN(CCc1ccc(NC(=O)c3cc(OC)c(OC)cc3NC(=O)c3cnc4ccccc4c3)cc1)CC2` [tariquidar], the “5D3 conformational antibody shift at 1 μM, flow cytometry” value (ABCG2 [3]) is reported as “Other known ABCG2 inhibitors (including FTC, tariquidar and erlotinib) tested were also shown to notably increase 5D3 labeling”.
With `COc1ccc2c3c([nH]c2c1)[C@H](C=C(C)C)N1C(=O)[C@@H]2CCCN2C(=O)[C@@H]1C3` [fumitremorgin C] the “5D3 conformational antibody shift at 5 μM, flow cytometry” value (ABCG2 [4]) was “Other known ABCG2 inhibitors (including FTC, tariquidar and erlotinib) tested were also shown to notably increase 5D3 labeling”.
For `C=Cc1c(C)c2cc3nc(c4c5[nH]c(cc6nc(cc1[nH]2)C(C)=C6CC)c(C)c5C(=O)[C@@H]4C(=O)OC)[C@@H](CCC(=O)O)[C@@H]3C` [pheophorbide A], the “flow cytometry efflux of 1 μM PhA in HEK293/ABCG2 versus pcDNA3 cells” value (ABCG2 [5]) was “fluorescent ABCG2 probe substrate (pheophorbide A, PhA) for efflux was studied in HEK293/ABCG2 cells by flow cytometry analysis”.
